Experimental data published in the supplement of paper PMC11451515.

Experiments:
Assay in all cases: AUC of viability dose-response curve (% viability x log10 dose units); higher = less sensitive
Conditions in all cases: 48 h
NOMO1 = system: NOMO1
In short: (§1)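 Leukemia cells adapted to each medium were seeded at 500 or 1000 cells/well in 1536-well plates and dosed with library compounds in DMSO at 11 threefold doses from 47 μM to 0.79 nM for 48 h at 37°C. CellTiter-Glo One luminescence was normalised per plate to DMSO and cell-free wells, then fitted with a four-parameter log-logistic model over log10 doses. Area under the curve was taken from this fit by the trapezoidal rule, with curves above full viability scaled and curves failing quality control removed.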

P12-Ichikawa = system: P12-Ichikawa
In short: as §1

SEM cells = system: SEM cells
In short: as §1

[1] = RPMI 5 mM glucose + 10% dialyzed FBS

Row | Compound | AUC of viability dose-response curve (NOMO1; HPLM + 10% dialyzed FBS) | AUC of viability dose-response curve (NOMO1; RPMI 5 mM glucose + 10% FBS) | AUC of viability dose-response curve (NOMO1; [1]) | AUC of viability dose-response curve (P12-Ichikawa; HPLM + 10% dialyzed FBS) | AUC of viability dose-response curve (P12-Ichikawa; RPMI 5 mM glucose + 10% FBS) | AUC of viability dose-response curve (P12-Ichikawa; [1]) | AUC of viability dose-response curve (SEM cells; HPLM + 10% dialyzed FBS) | AUC of viability dose-response curve (SEM cells; RPMI 5 mM glucose + 10% FBS) | AUC of viability dose-response curve (SEM cells; [1])
1 | CCC(C)N1\N=C/N(C1=O)C2=CC=C(C=C2)N3CCN(CC3)C4=CC=C(OC[C@H]5CO[C@@](C[N]6C=NC=N6)(O5)C7=CC=C(Cl)C=C7Cl)C=C4 (stereo partly drawn) | 448 | 456 | 454 | 458 | 463 | 458 | 468 | 472 | 452
2 | Cc1c(-c2cccc3c(CCCOc4cccc5ccccc45)c(C(=O)O)n(Cc4cccnc4)c23)c(COc2ccc(N3CCN([S+](=O)([O-])N(C)C)CC3)cc2)nn1C | 407 | 416 | 423 | 427 | 421 | 418 | 415 | 456 | 423
3 | O=C(CC12CC3CC(CC(C3)C1)C2)Nc1cccc2nc(NCCNCCO)ccc12 | 436 | 406 | 399 | 424 | 410 | 412 | 386 | 405 | 392
4 | C[C@H]1C[C@H]2[C@@H]3CC[C@](O)(C(=O)CO)[C@@]3(C)C[C@H](O)[C@@H]2[C@@]\4(C)/C=C\C(=O)\C=C14 | 456 | 444 | 451 | 378 | 341 | 314 | 315 | 357 | 352
5 | O=C(CCCCCCC(=O)Nc1ccc([C@H]2O[C@@H](CSc3nc(-c4ccccc4)c(-c4ccccc4)o3)C[C@@H](c3ccc(CO)cc3)O2)cc1)NO | 405 | 406 | 403 | 378 | 376 | 362 | 398 | 397 | 391
6 | CC(C)=CCC/C(C)=C/CC/C(C)=C/CSc1ccccc1C(=O)O | 393 | 432 | 395 | 402 | 366 | 390 | 348 | 355 | 374
7 | CO[C@@]12[C@H](COC(N)=O)C/3=C(N1C[C@@H]4N[C@H]24)/C(=O)/C(=C(N)\C3=O)C | 449 | 453 | 446 | 472 | 443 | 419 | 453 | 431 | 435
8 | N[S+](=O)([O-])c1cc2c(cc1Cl)NC(C(Cl)Cl)N[S+]2(=O)[O-] (stereo not drawn) | 450 | 453 | 442 | 456 | 459 | 467 | 431 | 450 | 447
9 | C/C(=N\NC(=S)N1CCC1)c1ccccn1 | 122 | 140 | 121 | 127 | 120 | 122 | – | – | –
10 | O=C/1NC(=O)C(=C1C2=CN=C3C=CC=C[N]23)/C4=C[N]5CCN(CC6=C5C4=CC=C6)C(=O)N7CCOCC7 | 470 | 465 | 462 | 334 | 301 | 370 | 138 | 153 | 151
11 | CCOc1cc2ncc(C#N)c(Nc3ccc(F)c(Cl)c3)c2cc1NC(=O)/C=C/CN(C)C | 323 | 385 | 353 | 312 | 338 | 320 | 321 | 300 | 312
12 | N\C1=N\C2=C(N=C[N]2COCCO)C(=O)N1 | 464 | 461 | 467 | 472 | 465 | 473 | 451 | 460 | 431
13 | CCc1cc2c(cc1N1CCC(N3CCOCC3)CC1)C(C)(C)c1[nH]c3cc(C#N)ccc3c1C2=O | – | – | – | 464 | 443 | 451 | – | – | –
14 | CC(C)(F)C[C@H](N[C@@H](c1ccc(-c2ccc([S+](C)(=O)[O-])cc2)cc1)C(F)(F)F)C(=O)NC1(C#N)CC1 | 467 | 427 | 446 | 471 | 471 | 474 | 454 | 452 | 475
15 | CN(C)c1ccc2nc3ccc(N(C)C)cc3[s+]c2c1 | 401 | 374 | 376 | 387 | 386 | 395 | – | – | –
16 | O=C(CS(=O)Cc1ccco1)NC/C=C\COc1cc(CN2CCCCC2)ccn1 (stereo not drawn) | 464 | 440 | 474 | 459 | 463 | 450 | 455 | 452 | 446
17 | CCc1cc(C(N)=S)ccn1 | 459 | 434 | 460 | 448 | 463 | 452 | 407 | 434 | 447
18 | C[C@@H]1CCN(C(=O)CC#N)C[C@@H]1N(C)c1ncnc2[nH]ccc12 | 407 | 376 | 414 | 411 | 413 | 377 | 381 | 453 | 430

Row | Compound | AUC of viability dose-response curve (NOMO1; HPLM + 10% dialyzed FBS) | AUC of viability dose-response curve (NOMO1; RPMI 5 mM glucose + 10% FBS) | AUC of viability dose-response curve (NOMO1; [1]) | AUC of viability dose-response curve (P12-Ichikawa; HPLM + 10% dialyzed FBS) | AUC of viability dose-response curve (P12-Ichikawa; RPMI 5 mM glucose + 10% FBS) | AUC of viability dose-response curve (P12-Ichikawa; [1]) | AUC of viability dose-response curve (SEM cells; HPLM + 10% dialyzed FBS) | AUC of viability dose-response curve (SEM cells; RPMI 5 mM glucose + 10% FBS) | AUC of viability dose-response curve (SEM cells; [1])
19 | COc1cc2ncn(-c3cc(OCc4ccccc4[S+](C)(=O)[O-])c(C#N)s3)c2cc1OC | 443 | 435 | 457 | 450 | 450 | 428 | 457 | 461 | 470
20 | OC1=CC=C(C=C1)\C2=C\OC3=C(C(=CC(=C3)O)O)C2=O | 459 | 455 | 473 | 466 | 471 | 468 | 452 | 395 | 433
21 | C[C@@H](NCCCc1cccc(C(F)(F)F)c1)c1cccc2ccccc12 | 455 | 418 | 447 | 455 | 455 | 439 | 467 | 458 | 445
22 | CC(NC(C)(C)C)C(=O)c1cccc(Cl)c1 (stereo not drawn) | 448 | 476 | 456 | 470 | 473 | 472 | 444 | 433 | 436
23 | Cc1nn(C)c(COc2ccc(N3CCN([S+](=O)([O-])N(C)C)CC3)cc2)c1-c1cccc2c(CCCOc3cccc4ccccc34)c(C(=O)O)n(CCN3CCOCC3)c12 | – | – | – | 392 | 463 | 456 | 465 | 377 | 458
24 | O=C([O-])C[C@H](O)C[C@H](O)/C=C/c1c(C2CC2)nc2ccccc2c1-c1ccc(F)cc1 | 443 | 450 | 440 | 407 | 375 | 390 | 395 | 418 | 413
25 | CCN1\C=C(\C(O)=O)C(=O)C2=C1N=C(N3CCNCC3)C(=C2)F | 343 | 380 | 361 | 430 | 386 | 396 | 385 | 407 | 409
26 | CC(C)=CCC/C(C)=C/CC/C(C)=C/CC/C(C)=C/CC/C(C)=C/CC/C(C)=C/CC/C(C)=C/CC/C(C)=C/CC/C(C)=C/CO | 450 | 462 | 455 | 467 | 457 | 465 | 475 | 436 | 431
27 | OC[C@H]1O[C@H](C[C@@H]1O)N2\C=C(F)/C(=O)NC2=O | 250 | 347 | 214 | 244 | 298 | 259 | 243 | 352 | 198
28 | Cc1ccc(C(=O)Nc2cccc(C(F)(F)F)c2)cc1-c1ccc2nc(NCCN3CCOCC3)ncc2c1 | 384 | 388 | 384 | 418 | 408 | 408 | 384 | 378 | 378
29 | CC1(CN2CCC(n3c(=O)[nH]c4ccccc43)CC2)OCc2ccccc2-n2cccc21 (stereo not drawn) | 397 | 452 | 438 | 470 | 469 | 458 | 455 | 449 | 470
30 | Cc1nc2cc(C(=O)N3CCC4(CC3)CC(=O)c3c(cnn3C(C)C)C4)ccc2[nH]1 | 465 | 471 | 455 | 457 | 469 | 458 | – | – | –
31 | OC1=CC2=C(C=C1)C(=O)\C(=C(O2)\C3=CC(=C(O)C=C3)O)O | – | – | – | 430 | 420 | 406 | 456 | 456 | 418
32 | O=C1CCC[C@@H]2[C@H]3CCCN4CCC[C@@H](CN12)[C@@H]34 | – | – | – | 426 | 396 | 389 | 324 | 390 | 347
33 | COc1ccc(C(CN(C)C)C2(O)CCCCC2)cc1 (stereo not drawn) | – | – | – | 459 | 405 | 461 | 476 | 475 | 424
34 | COc1cc(Nc2c(C#N)cnc3cc(OCCCN4CCN(C)CC4)c(OC)cc23)c(Cl)cc1Cl | 370 | 397 | 407 | 372 | 382 | 382 | – | – | –
35 | O=C(Nc1c[nH]nc1-c1nc2cc(CN3CCOCC3)ccc2[nH]1)NC1CC1 | – | – | – | 270 | 282 | 304 | 219 | 202 | 199
36 | CC[C@]12CC[C@H]3[C@@H](CCC/4=C/C(=O)CC[C@H]34)[C@@H]1CC[C@@]2(O)C#C | – | – | – | 413 | 405 | 386 | 417 | 448 | 452
